Results on 1 molecule are retold here after patent EP0232650B1, “Analogues of hypocalcemic polypeptide compounds preserving the calcium content of the body, their manufacture, their use as medicaments and the compositions thereof” (MILHAUD, Gérard, priority 1985, dated 1989).

A short description of this assay: Hypocalcemic activity in the fasted male rat (fall in calcemia one hour after intravenous injection, compared with Research Standard B). The conditions noted are these: male rat 100-120 g, fasted 16 hours, peptide diluted in sodium acetate buffer 0,1 N pH 6 with 0,1 % albumin, versus "Research Standard B". Type of assay: in vivo. The text has this: Elle est déterminée chez le rat mâle pesant de 100 à 120 g et soumis à un jeûne de 16 heures. L'activité est exprimée en unité MRC à partir de la baisse de la calcémie, mesurée une heure après l'injection intraveineuse de peptide à tester convenablement dilué en tampon acétate de sodium 0,1 N pH 6 et 0,1 % d'albumine, par comparaison avec l'activité du "Research Standard B" convenablement dilué. L'activité biologique du peptide de l'exemple 1 est supérieure à 4000 unités MRC par mg et celle du peptide de l'exemple 2 est supérieure à 4500 unités MRC par mg.

Where a SMILES comes first, the peptide text is derived from it. Bridges are numbered along the chain shown (N, C = ends).

`CC(C)C[C@H](NC(=O)[C@H](CCCCN)NC(=O)CNC(=O)[C@H](CC(C)C)NC(=O)[C@@H](NC(=O)[C@@H]1CSSC[C@H](N)C(=O)N[C@@H](CC(N)=O)C(=O)N[C@@H](CO)C(=O)N[C@@H](CC(C)C)C(=O)N[C@@H](CO)C(=O)N[C@@H]([C@@H](C)O)C(=O)N1)C(C)C)C(=O)N[C@@H](CO)C(=O)N[C@@H](CCC(N)=O)C(=O)N[C@@H](CCC(=O)O)C(=O)N[C@@H](CC(C)C)C(=O)N[C@@H](Cc1c[nH]cn1)C(=O)N[C@@H](CCCCN)C(=O)N[C@@H](CC(C)C)C(=O)N[C@@H](CCC(N)=O)C(=O)N[C@H](C(=O)N[C@@H](Cc1ccc(O)cc1)C(=O)N1CCC[C@H]1C(=O)N[C@@H](CCCNC(=N)N)C(=O)N[C@H](C(=O)N[C@@H](CC(=O)O)C(=O)N[C@H](C(=O)NCC(=O)N[C@@H](C)C(=O)NCC(=O)N[C@H](C(=O)N1CCC[C@H]1C(N)=O)[C@@H](C)O)C(C)C)[C@@H](C)O)[C@@H](C)O` [exemple 1, Cys - Asn - Ser - Leu - Sers - Thr - Cys - Val - Leu - Glyio - Lys - Leu - Ser - Gin - Glu1s - Leu - His - Lys - Leu - Gln20- Thr - Tyr - Pro - Arg - Thr25- Asp - Val - Gly - Ala - Gly30 - Thr - Proamide] (H-CNSLSTCVLGKLSQELHKLQTYPRTDVGAGTP-NH2; disulfide 1-7): the activité biologique is listed as above 4000 unités MRC par mg.
